# Measured values: US4555504A, “Inclusion complex of β-cyclodextrin and digoxin” (Burroughs Wellcome Co., priority 1981, dated 1985)
# Tests used:
# [1] = background statement; cited from earlier work
# [2] = Comparative solubility of complexed and non-complexed cardiac glycosides in deionised water; format: physicochemical; conditions: shaken about 8 hours, ambient temperature, HPLC
# Text: The resultant mixture was filtered through a filter paper (Whatman No. 2) and then through a membrane filter (0.02 um, Millipore), the filtrate diluted 100 fold with deionised water and the solution thus obtained assayed for cardiac glycoside in a conventional manner using high performance liquid chromatography.
# [3] = Comparative dissolution of complexed and non-complexed digoxin (B.P. rotating basket); format: physicochemical; conditions: B.P. 1980 rotating basket, deionised water (1 liter), 37° C., HPLC
# Procedure: The dissolution rate of complexed (1:3 complex, Example 1) and non-complexed digoxin was determined in the British Pharmacopoeia rotating basket apparatus (B.P., 1980). The dissolution medium was deionised water (1 liter) at 37° C. A scoop containing sample (about […] of digoxin or about […] of digoxin/B-cyclodextrin complex) was added to the dissolution medium and allowed to settle to the base of the vessel. Samples (2 ml) were taken at intervals up to 60 minutes via a volumetric pippette and assayed by high performance liquid chromatography to determine cumulative percentage release of drug.
smiles,measurement,setting,value
"C[C@H]1O[C@@H](O[C@H]2[C@@H](O)C[C@H](O[C@H]3[C@@H](O)C[C@H](O[C@H]4CC[C@@]5(C)[C@H](CC[C@@H]6[C@@H]5C[C@@H](O)[C@]5(C)[C@@H](C7=CC(=O)OC7)CC[C@]65O)C4)O[C@@H]3C)O[C@@H]2C)C[C@H](O)[C@@H]1O [Digoxin, digoxin]",solubility of digoxin in water,[1],~0.005%
same,solubility at 8 h,[2],46 µg/mL
same,solubility thermodynamic at 8 h,"[2]; read-out: Solubility, Non-complexed (percent)",46 µg/mL
same,T80 (time for 80% release),[3],> 60 min
